{"source": "patent US8377974B2", "about": "(Millennium Pharmaceuticals, Inc., priority 2004, dated 2013)", "target": "T1, human plasma protein factor Xa (Homo sapiens, UniProt P00742)", "T1 construct": "measure proteolytic activity of the enzyme (factor Xa); purchased Haematologic Technologies (Essex Junction, Vt.); host or cells: human plasma", "T1 sequence (P00742 235-488 limits assumed)": "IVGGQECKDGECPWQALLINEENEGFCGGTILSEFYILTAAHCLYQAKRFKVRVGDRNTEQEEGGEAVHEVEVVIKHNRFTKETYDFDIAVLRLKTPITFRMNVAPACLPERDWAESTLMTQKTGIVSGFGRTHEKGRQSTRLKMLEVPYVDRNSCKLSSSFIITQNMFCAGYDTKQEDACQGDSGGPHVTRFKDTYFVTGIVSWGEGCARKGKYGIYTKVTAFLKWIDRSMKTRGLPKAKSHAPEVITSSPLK", "T1 sequence (P00742 41-179 partner limits assumed)": "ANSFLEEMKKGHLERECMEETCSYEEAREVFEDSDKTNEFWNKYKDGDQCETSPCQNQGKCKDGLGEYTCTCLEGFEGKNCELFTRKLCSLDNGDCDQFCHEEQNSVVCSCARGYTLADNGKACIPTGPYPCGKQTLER", "experiment": "Factor Xa IC50 determination: cleavage of paranitroanilide substrate S-2765 in 96-well plates", "type": "biochemical", "settings": "fXa 1 nM, S-2765 100 μM, Tris buffered saline pH 7.4, room temperature", "method_in_brief": "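Human plasma factor Xa (1 nM) preincubated 5 min at room temperature with inhibitor (0.01 nM–10 μM final) in Tris-buffered saline pH 7.4 with 5 mM CaCl2, 0.1% BSA, 5% DMSO. S-2765 at 100 μM final; hydrolysis at 405 nm over 2 min. IC50 from 4-parameter fit of initial velocities.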", "note": "pIC50: −log10 of the molar value.", "data": [{"smiles": "O=C(NCC1CC(c2ccc(Nc3ccnc4ccc(C(F)(F)F)cc34)cc2)=NO1)c1ccc(Cl)s1", "note": "(stereo not drawn) [Example 395, 5-Chloro-N-((3-(4-(6-(trifluoromethyl)quinolin-4-ylamino)phenyl)-4,5-dihydroisoxazol-5-yl)methyl)thiophene-2-carboxamide]", "values": [{"measurement": "pIC50", "result": "≥ 7.00"}]}, {"smiles": "N=C(c1ccc(-c2nc(CNC(=O)c3ccc(Cl)s3)cs2)cc1)N1CCCCC1", "note": "[Example 353, 5-Chloro-N-((2-(4-(imino(piperidin-1-yl)methyl)phenyl)thiazol-4-yl)methyl)thiophene-2-carboxamide]", "values": [{"measurement": "pIC50", "result": "6.30 to 7.00"}]}, {"smiles": "CC1(CNC(=O)c2ccc(Cl)s2)CC(c2ccc(C(N3CCC3)=[N+]3CCC3)cc2)=NO1", "note": "(stereo not drawn) [Example 63, 5-Chloro-thiophene-2-carboxylic acid {3-[4-(azetidin-1-yl-azetidin-1-ylidene-methyl)-phenyl]-5-methyl-4,5-dihydro-isoxazol-5-ylmethyl}-amide]", "values": [{"measurement": "pIC50", "result": "≥ 7.00"}]}, {"smiles": "COc1ccc(-c2ccc(-c3cc(CNC(=O)c4ccc(Cl)s4)on3)cc2)c(CN2CCCC2)c1", "note": "[Example 218, 5-Chloro-thiophene-2-carboxylic acid [3-(4′-methoxy-2′-pyrrolidin-1-ylmethyl-biphenyl-4-yl)-isoxazol-5-ylmethyl]-amide]", "values": [{"measurement": "pIC50", "result": "≥ 7.00"}]}, {"smiles": "O=C(NCC1CC(c2ccc(-n3ccccc3=O)cc2)=NO1)c1ccc(Cl)s1", "note": "(stereo not drawn) [Example 278, 5-Chloro-N-((3-(4-(2-oxopyridin-1(2H)-yl)phenyl)-4,5-dihydroisoxazol-5-yl)methyl)thiophene-2-carboxamide]", "values": [{"measurement": "pIC50", "result": "≥ 7.00"}]}, {"smiles": "O=C(NCC1CC(c2ccc(Nc3cccnc3)cc2)=NO1)c1ccc(Cl)s1", "note": "(stereo not drawn) [Example 225, 5-Chloro-thiophene-2-carboxylic acid {3-[4-(pyridin-3-ylamino)-phenyl]-4,5-dihydro-isoxazol-5-ylmethyl}-amide]", "values": [{"measurement": "pIC50", "result": "≥ 7.00"}]}, {"smiles": "CC1(CNC(=O)c2ccc(Cl)s2)CC(c2ccccc2)=NO1", "note": "(stereo not drawn) [Example 145, 5-Chloro-thiophene-2-carboxylic acid (5-methyl-3-phenyl-4,5-dihydro-isoxazol-5-ylmethyl)-amide]", "values": [{"measurement": "pIC50", "result": "≤ 6.30"}]}, {"smiles": "CCOc1cc(C2=NCCN2C)ccc1-c1cc(CNC(=O)c2ccc(Cl)s2)on1", "note": "[Example 123, 5-Chloro-thiophene-2-carboxylic acid {3-[2-ethoxy-4-(1-methyl-4,5-dihydro-1H-imidazol-2-yl)-phenyl]-isoxazol-5-ylmethyl}-amide]", "values": [{"measurement": "pIC50", "result": "≥ 7.00"}]}, {"smiles": "CN(C)C(=N)c1ccc(C2=NOC(CNC(=O)c3ccc(Cl)s3)C2)c(OC2CCCCC2)c1", "note": "(stereo not drawn) [Example 115, 5-Chloro-thiophene-2-carboxylic acid {3-[2-cyclohexyloxy-4-(N,N-dimethyl-carbamimidoyl)-phenyl]-4,5-dihydro-isoxazol-5-ylmethyl}-amide]", "values": [{"measurement": "pIC50", "result": "≥ 7.00"}]}, {"smiles": "CN(C)C(=O)c1ccc(C2=NOC(CNC(=O)c3ccc(Cl)s3)C2)cc1", "note": "(stereo not drawn) [Example 162, 5-Chloro-thiophene-2-carboxylic acid [3-(4-dimethylcarbamoyl-phenyl)-4,5-dihydro-isoxazol-5-ylmethyl]-amide]", "values": [{"measurement": "pIC50", "result": "≥ 7.00"}]}, {"smiles": "O=C(NCC1CC(c2ccc(Nc3ccncc3)cc2)=NO1)c1ccc(Cl)s1", "note": "(stereo not drawn) [Example 226, 5-Chloro-thiophene-2-carboxylic acid {3-[4-(pyridin-4-ylamino)-phenyl]-4,5-dihydro-isoxazol-5-ylmethyl}-amide]", "values": [{"measurement": "pIC50", "result": "≥ 7.00"}]}, {"smiles": "N=C(c1ccc(-c2cc(CNC(=O)c3ccc(Cl)s3)on2)cc1)N1CCCCC1", "note": "[Example 24, 5-Chloro-thiophene-2-carboxylic acid {3-[4-(imino-piperidin-1-yl-methyl)-phenyl]-isoxazol-5-ylmethyl}-amide]", "values": [{"measurement": "pIC50", "result": "≥ 7.00"}]}, {"smiles": "CN(C)C(=N)c1ccc(C2=NOC(CNC(=O)c3ccc(Cl)s3)C2)c(N2CCCC2)c1", "note": "(stereo not drawn) [Example 78, 5-Chloro-thiophene-2-carboxylic acid {3-[4-(N,N-dimethyl-carbamimidoyl)-2-pyrrolidin-1-yl-phenyl]-4,5-dihydro-isoxazol-5-ylmethyl}-amide]", "values": [{"measurement": "pIC50", "result": "6.30 to 7.00"}]}, {"smiles": "COc1cc(C(=N)N(C)C)ccc1-c1cc(CNC(=O)c2ccc(Cl)s2)on1", "note": "[Example 118, 5-Chloro-thiophene-2-carboxylic acid {3-[4-(N,N-dimethyl-carbamimidoyl)-2-methoxy-phenyl]-isoxazol-5-ylmethyl}-amide]", "values": [{"measurement": "pIC50", "result": "≥ 7.00"}]}, {"smiles": "CN1CCN=C1c1ccc(-c2nc(CNC(=O)c3ccc(Cl)s3)cs2)cc1", "note": "[Example 351, 5-Chloro-N-((2-(4-(1-methyl-4,5-dihydro-1H-imidazol-2-yl)phenyl)thiazol-4-yl)methyl)thiophene-2-carboxamide]", "values": [{"measurement": "pIC50", "result": "6.30 to 7.00"}]}, {"smiles": "CN(C)C(=N)c1ccc(-c2ccc(F)c(CNC(=O)c3ccc(Cl)s3)c2)cc1", "note": "[Example 374, N-((5-(4-(N,N-Dimethylcarbamimidoyl)phenyl)-2-fluorophenyl)methyl)-5-chlorothiophene-2-carboxamide]", "values": [{"measurement": "pIC50", "result": "≥ 7.00"}]}, {"smiles": "N=C(c1ccc(-n2cc(CNC(=O)c3ccc(Cl)s3)nn2)c(F)c1)N1CCC1", "note": "[Example 321, N-((1-(4-(Azetidin-1-yl(imino)methyl)-2-fluorophenyl)-1H-1,2,3-triazol-4-yl)methyl)-5-chlorothiophene-2-carboxamide]", "values": [{"measurement": "pIC50", "result": "≥ 7.00"}]}, {"smiles": "CN(C)c1cc(C(=N)N2CCCCC2)ccc1C1=NOC(CNC(=O)c2ccc(Cl)s2)C1", "note": "(stereo not drawn) [Example 77, 5-Chloro-thiophene-2-carboxylic acid {3-[2-dimethylamino-4-(imino-piperidin-1-yl-methyl)-phenyl]-4,5-dihydro-isoxazol-5-ylmethyl}-amide]", "values": [{"measurement": "pIC50", "result": "≥ 7.00"}]}, {"smiles": "CC(=N)N1CCC(c2cc(CNC(=O)c3ccc(Cl)s3)on2)CC1", "note": "[Example 180, 5-Chloro-thiophene-2-carboxylic acid {3-[1-(1-imino-ethyl)-piperidin-4-yl]-isoxazol-5-ylmethyl}-amide]", "values": [{"measurement": "pIC50", "result": "≤ 6.30"}]}, {"smiles": "CN(Cc1ccco1)C(=N)c1ccc(-c2nc(CNC(=O)c3ccc(Cl)s3)cs2)cc1", "note": "[Example 356, N-((2-(4-(N-(Furan-2-ylmethyl)-N-methylcarbamimidoyl)phenyl)thiazol-4-yl)methyl)-5-chlorothiophene-2-carboxamide]", "values": [{"measurement": "pIC50", "result": "≤ 6.30"}]}, {"smiles": "O=C(NCc1cn(-c2ccc(-n3ccccc3=O)cc2F)nn1)c1ccc(Cl)s1", "note": "[Example 305, 5-Chloro-N-((1-(2-fluoro-4-(2-oxopyridin-1(2H)-yl)phenyl)-1H-1,2,3-triazol-4-yl)methyl)thiophene-2-carboxamide]", "values": [{"measurement": "pIC50", "result": "≥ 7.00"}]}, {"smiles": "CSc1cc(C(=N)N(C)C)ccc1C1=NOC(CNC(=O)c2ccc(Cl)s2)C1", "note": "(stereo not drawn) [Example 136, 5-Chloro-thiophene-2-carboxylic acid {3-[4-(N,N-dimethyl-carbamimidoyl)-2-methylsulfanyl-phenyl]-4,5-dihydro-isoxazol-5-ylmethyl}-amide]", "values": [{"measurement": "pIC50", "result": "≥ 7.00"}]}, {"smiles": "COc1ccc(Oc2cc(C(=N)N3CCCC3)ccc2-c2cc(CNC(=O)c3ccc(Cl)s3)on2)cc1", "note": "[Example 135, 5-Chloro-thiophene-2-carboxylic acid {3-[4-(imino-pyrrolidin-1-yl-methyl)-2-(4-methoxy-phenoxy)-phenyl]-isoxazol-5-ylmethyl}-amide]", "values": [{"measurement": "pIC50", "result": "≥ 7.00"}]}, {"smiles": "CN1CCN=C1c1ccc(-c2cc(CNC(=O)c3ccc(Cl)s3)on2)c(Oc2ccccc2)c1", "note": "[Example 131, 5-Chloro-thiophene-2-carboxylic acid {3-[4-(1-methyl-4,5-dihydro-1H-imidazol-2-yl)-2-phenoxy-phenyl]-isoxazol-5-ylmethyl}-amide]", "values": [{"measurement": "pIC50", "result": "≥ 7.00"}]}, {"smiles": "CCCN(C)C(=N)c1ccc(C2=NOC(CNC(=O)c3ccc(Cl)s3)C2)cc1", "note": "(stereo not drawn) [Example 17, 5-Chloro-thiophene-2-carboxylic acid {3-[4-(N-methyl-N-propyl-carbamimidoyl)-phenyl]-4,5-dihydro-isoxazol-5-ylmethyl}-amide]", "values": [{"measurement": "pIC50", "result": "≥ 7.00"}]}, {"smiles": "N=C(c1ccc(-c2cncc(CNC(=O)c3ccc(Cl)s3)c2)cc1)N1CCCC1", "note": "[Example 372, 5-Chloro-N-((5-(4-(imino(pyrrolidin-1-yl)methyl)phenyl)pyridin-3-yl)methyl)thiophene-2-carboxamide]", "values": [{"measurement": "pIC50", "result": "≥ 7.00"}]}, {"smiles": "CN(C)C(=N)c1ccc(C2=NOC(CNC(=O)c3ccc(Cl)s3)C2)c(N2CCOCC2)c1", "note": "(stereo not drawn) [Example 82, 5-Chloro-thiophene-2-carboxylic acid {3-[4-(N,N-dimethyl-carbamimidoyl)-2-morpholin-4-yl-phenyl]-4,5-dihydro-isoxazol-5-ylmethyl}-amide]", "values": [{"measurement": "pIC50", "result": "≥ 7.00"}]}, {"smiles": "CC(C)Oc1cc(C(=N)N2CCCC2)ccc1-c1cc(CNC(=O)c2ccc(Cl)s2)on1", "note": "[Example 128, 5-Chloro-thiophene-2-carboxylic acid {3-[4-(imino-pyrrolidin-1-yl-methyl)-2-isopropoxy-phenyl]-isoxazol-5-ylmethyl}-amide]", "values": [{"measurement": "pIC50", "result": "≥ 7.00"}]}, {"smiles": "CN(Cc1ccco1)C(=N)c1ccc(-c2cc(CNC(=O)c3ccc(Cl)s3)on2)cc1", "note": "[Example 31, 5-Chloro-thiophene-2-carboxylic acid {3-[4-(N-furan-2-ylmethyl-N-methyl-carbamimidoyl)-phenyl]-isoxazol-5-ylmethyl}-amide]", "values": [{"measurement": "pIC50", "result": "≥ 7.00"}]}, {"smiles": "O=C(NCC1CC(c2ccc(-c3ccncc3)cc2)=NO1)c1ccc(Cl)s1", "note": "(stereo not drawn) [Example 191, 5-Chloro-thiophene-2-carboxylic acid [3-(4-pyridin-4-yl-phenyl)-4,5-dihydro-isoxazol-5-ylmethyl]-amide]", "values": [{"measurement": "pIC50", "result": "≤ 6.30"}]}, {"smiles": "N=C(c1ccc(-n2cc(CNC(=O)c3ccc(Cl)s3)cn2)cc1)N1CCC1", "note": "[Example 327, N-((1-(4-(Azetidin-1-yl(imino)methyl)phenyl)-1H-pyrazol-4-yl)methyl)-5-chlorothiophene-2-carboxamide]", "values": [{"measurement": "pIC50", "result": "≥ 7.00"}]}, {"smiles": "O=C(NCC1CC(c2ccc(Oc3ccccc3)cc2)=NO1)c1ccc(Cl)s1", "note": "(stereo not drawn) [Example 5, 5-Chloro-thiophene-2-carboxylic acid [3-(4-phenoxy-phenyl)-4,5-dihydro-isoxazol-5-ylmethyl]-amide]", "values": [{"measurement": "pIC50", "result": "≤ 6.30"}]}, {"smiles": "C[C@@H](NC(=O)c1ccc(Cl)s1)c1cc(-c2ccc(C(=N)N(C)C)cc2)no1", "note": "[Example 49, (R)-5-Chloro-thiophene-2-carboxylic acid (1-{3-[4-(N,N-dimethyl-carbamimidoyl)-phenyl]-isoxazol-5-yl}-ethyl)-amide]", "values": [{"measurement": "pIC50", "result": "≥ 7.00"}]}]}
